“And” between values parts separate entries of the source, which are not always exact repeats. Equal values may be shown once. Toxic doses and inconclusive results are not listed.
Test system: P388 leukemia ip, CD2F1 mice, survival T/C
Assay: NCI In Vivo Anticancer Drug Screen. Data for tumor model P388 Leukemia (intraperitoneal) in CD2F1 (CDF1) mice
Settings: endpoint: median survival time, higher = longer survival
Method in brief: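 Mice carrying the transplanted tumor received test compound or vehicle. Survival was recorded in each group, and the value is the treated-group measurement divided by that of the vehicle-treated control group.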

C[N+]1(C)Cc2ccccc2C1
T/C (dose: 12.5 mg/kg/injection, schedule: Q01DX009 (ip), vehicle: saline): 105 % of control
T/C (dose: 25.0 mg/kg/injection, schedule: Q01DX009 (ip), vehicle: saline): 108 % of control

Nc1nnnn1NC(=O)c1ccccc1
T/C (dose: 100.0 mg/kg/injection, schedule: Q04DX003 (ip), vehicle: Klucel (hydroxypropylcellulose) (HPC)): 97 % of control
T/C (dose: 200.0 mg/kg/injection, schedule: Q04DX003 (ip), vehicle: Klucel (hydroxypropylcellulose) (HPC)): 102 % of control
T/C (dose: 400.0 mg/kg/injection, schedule: Q04DX003 (ip), vehicle: Klucel (hydroxypropylcellulose) (HPC)): 98 % of control

Cc1cc2[nH]c(Cl)c(/C=N/Nc3ccccc3[N+](=O)[O-])c2cc1O
T/C (dose: 50.0 mg/kg/injection, schedule: Q01DX001 (ip), vehicle: Klucel (hydroxypropylcellulose) (HPC)): 96 % of control
T/C (dose: 100.0 mg/kg/injection, schedule: Q01DX001 (ip), vehicle: Klucel (hydroxypropylcellulose) (HPC)): 99 % of control
T/C (dose: 200.0 mg/kg/injection, schedule: Q01DX001 (ip), vehicle: Klucel (hydroxypropylcellulose) (HPC)): 90 % of control and 96 % of control

CCN(CC)S(=O)(=O)C(=[N+]=[N-])P(=O)(OC)OC
T/C (dose: 100.0 mg/kg/injection, schedule: Q04DX002 (ip), vehicle: saline): 100 % of control
T/C (dose: 200.0 mg/kg/injection, schedule: Q04DX002 (ip), vehicle: saline): 112 % of control
T/C (dose: 400.0 mg/kg/injection, schedule: Q04DX002 (ip), vehicle: saline): 100 % of control

O=C(CCC(=O)Nc1ccccc1[N+](=O)[O-])CC(=O)c1ccc(Br)cc1
T/C (dose: 60.0 mg/kg/injection, schedule: Q01DX005 (ip), vehicle: saline with Tween-80): 105 % of control
T/C (dose: 120.0 mg/kg/injection, schedule: Q01DX005 (ip), vehicle: saline with Tween-80): 106 % of control
T/C (dose: 240.0 mg/kg/injection, schedule: Q01DX005 (ip), vehicle: saline with Tween-80): 106 % of control

COC(=O)C1(C)CC2C(C)(CCC3(C)C4=CC=C5C(=CC(=O)C(O)=C5C)C4(C)CCC23C)CC1O (stereo not drawn)
T/C (dose: 6.25 mg/kg/injection, schedule: Q01DX001 (ip), vehicle: saline with Tween-80): 100 % of control
T/C (dose: 12.5 mg/kg/injection, schedule: Q01DX001 (ip), vehicle: saline with Tween-80): 99 % of control
T/C (dose: 25.0 mg/kg/injection, schedule: Q01DX001 (ip), vehicle: saline with Tween-80): 99 % of control
T/C (dose: 100.0 mg/kg/injection, schedule: Q01DX001 (ip), vehicle: saline with Tween-80): 100 % of control

CCCCCCC(=O)/C=C/c1ccc(C)cc1
T/C (dose: 50.0 mg/kg/injection, schedule: Q01DX005 (ip), vehicle: Klucel (hydroxypropylcellulose) (HPC)): 100 % of control
T/C (dose: 100.0 mg/kg/injection, schedule: Q01DX005 (ip), vehicle: Klucel (hydroxypropylcellulose) (HPC)): 100 % of control
T/C (dose: 200.0 mg/kg/injection, schedule: Q01DX005 (ip), vehicle: Klucel (hydroxypropylcellulose) (HPC)): 94 % of control

NS(=O)(=O)OCCCCCCCOS(N)(=O)=O
T/C (dose: 6.0 mg/kg/injection, schedule: Q01DX005 (iv), vehicle: other): 109 % of control
T/C (dose: 6.7 mg/kg/injection, schedule: Q04DX003 (ip), vehicle: other): 121 % of control
T/C (dose: 8.98 mg/kg/injection, schedule: Q01DX005 (ip), vehicle: other): 122 % of control
T/C (dose: 8.98 mg/kg/injection, schedule: Q01DX005 (iv), vehicle: other): 112 % of control
T/C (dose: 10.0 mg/kg/injection, schedule: Q04DX003 (ip), vehicle: other): 119 % of control
T/C (dose: 11.0 mg/kg/injection, schedule: Q03HX009 (ip), vehicle: other): 160 % of control
T/C (dose: 13.4 mg/kg/injection, schedule: Q01DX005 (iv), vehicle: other): 118 % of control
T/C (dose: 16.5 mg/kg/injection, schedule: Q03HX009 (ip), vehicle: other): 171 % of control
T/C (dose: 16.67 mg/kg/injection, schedule: Q01DX009 (ip), vehicle: other): 168 % of control
T/C (dose: 20.0 mg/kg/injection, schedule: Q01DX001 (iv), vehicle: other): 105 % of control
T/C (dose: 20.0 mg/kg/injection, schedule: Q01DX005 (ip), vehicle: other): 150 % of control and 159 % of control
T/C (dose: 22.5 mg/kg/injection, schedule: Q03HX003 (ip), vehicle: other): 158 % of control
T/C (dose: 24.9 mg/kg/injection, schedule: Q01DX009 (ip), vehicle: other): 184 % of control
T/C (dose: 25.0 mg/kg/injection, schedule: Q01DX005 (ip), vehicle: saline with Tween-80): 152 % of control and 163 % of control
T/C (dose: 25.0 mg/kg/injection, schedule: Q03HX009 (ip), vehicle: other): 206 % of control
T/C (dose: 30.0 mg/kg/injection, schedule: Q01DX001 (ip), vehicle: other): 124 % of control
T/C (dose: 30.0 mg/kg/injection, schedule: Q01DX001 (iv), vehicle: other): 111 % of control
T/C (dose: 30.0 mg/kg/injection, schedule: Q01DX005 (ip), vehicle: other): 161 % of control and 181 % of control
T/C (dose: 33.3 mg/kg/injection, schedule: Q04DX003 (ip), vehicle: other): 164 % of control
T/C (dose: 34.0 mg/kg/injection, schedule: Q03HX003 (ip), vehicle: other): 174 % of control
T/C (dose: 37.0 mg/kg/injection, schedule: Q03HX009 (ip), vehicle: other): 232 % of control
T/C (dose: 37.2 mg/kg/injection, schedule: Q01DX009 (ip), vehicle: other): 222 % of control
T/C (dose: 37.2 mg/kg/injection, schedule: Q01DX009 (oral), vehicle: other): 124 % of control
T/C (dose: 44.0 mg/kg/injection, schedule: Q01DX005 (ip), vehicle: other): 192 % of control
T/C (dose: 44.89 mg/kg/injection, schedule: Q01DX005 (ip), vehicle: other): 194 % of control
T/C (dose: 44.9 mg/kg/injection, schedule: Q01DX001 (iv), vehicle: other): 112 % of control
T/C (dose: 50.0 mg/kg/injection, schedule: Q03HX003 (ip), vehicle: other): 210 % of control
T/C (dose: 50.0 mg/kg/injection, schedule: Q04DX003 (ip), vehicle: other): 185 % of control
T/C (dose: 55.6 mg/kg/injection, schedule: Q01DX009 (ip), vehicle: other): 123 % of control
T/C (dose: 67.0 mg/kg/injection, schedule: Q01DX001 (ip), vehicle: other): 151 % of control
T/C (dose: 74.8 mg/kg/injection, schedule: Q04DX003 (ip), vehicle: other): 212 % of control
T/C (dose: 82.9 mg/kg/injection, schedule: Q01DX009 (oral), vehicle: other): 109 % of control
T/C (dose: 100.0 mg/kg/injection, schedule: Q01DX001 (ip), vehicle: other): 164 % of control
T/C (dose: 111.6 mg/kg/injection, schedule: Q04DX003 (ip), vehicle: other): 210 % of control
T/C (dose: 125.0 mg/kg/injection, schedule: Q01DX005 (ip), vehicle: saline with Tween-80): 156 % of control
T/C (dose: 150.0 mg/kg/injection, schedule: Q01DX001 (ip), vehicle: other): 205 % of control
T/C (dose: 200.0 mg/kg/injection, schedule: Q01DX005 (ip), vehicle: saline with Tween-80): 117 % of control

From PubChem BioAssay AID330 (DTP/NCI, 2004)
